Patent publication US20220002314A1 (priority 2018, published 2022)
Read-outs that look alike come from different tables or passages of the source.

How the values were obtained:
[1] = biological target: Human α2δ-1 subunit of Cav2.2 calcium channel (Homo sapiens, UniProt P54289); test: biochemical; format: binding
Human μ-opioid receptor = Human μ-opioid receptor (Homo sapiens, UniProt P35372); test: biochemical; format: binding
Human μ-opioid receptor, sequence (P35372 whole entry): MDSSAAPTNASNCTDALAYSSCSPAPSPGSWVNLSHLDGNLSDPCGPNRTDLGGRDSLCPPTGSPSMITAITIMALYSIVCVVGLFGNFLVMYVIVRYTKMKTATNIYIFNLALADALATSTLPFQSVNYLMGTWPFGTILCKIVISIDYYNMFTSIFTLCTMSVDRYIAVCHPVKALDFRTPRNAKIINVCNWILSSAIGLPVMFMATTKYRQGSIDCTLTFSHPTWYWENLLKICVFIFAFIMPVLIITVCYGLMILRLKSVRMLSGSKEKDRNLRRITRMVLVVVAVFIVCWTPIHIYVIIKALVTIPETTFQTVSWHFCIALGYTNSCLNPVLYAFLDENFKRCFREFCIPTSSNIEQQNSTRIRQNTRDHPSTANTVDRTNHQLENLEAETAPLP

Human α2δ-1 subunit of Cav2.2 calcium channel, sequence (P54289 25-1103): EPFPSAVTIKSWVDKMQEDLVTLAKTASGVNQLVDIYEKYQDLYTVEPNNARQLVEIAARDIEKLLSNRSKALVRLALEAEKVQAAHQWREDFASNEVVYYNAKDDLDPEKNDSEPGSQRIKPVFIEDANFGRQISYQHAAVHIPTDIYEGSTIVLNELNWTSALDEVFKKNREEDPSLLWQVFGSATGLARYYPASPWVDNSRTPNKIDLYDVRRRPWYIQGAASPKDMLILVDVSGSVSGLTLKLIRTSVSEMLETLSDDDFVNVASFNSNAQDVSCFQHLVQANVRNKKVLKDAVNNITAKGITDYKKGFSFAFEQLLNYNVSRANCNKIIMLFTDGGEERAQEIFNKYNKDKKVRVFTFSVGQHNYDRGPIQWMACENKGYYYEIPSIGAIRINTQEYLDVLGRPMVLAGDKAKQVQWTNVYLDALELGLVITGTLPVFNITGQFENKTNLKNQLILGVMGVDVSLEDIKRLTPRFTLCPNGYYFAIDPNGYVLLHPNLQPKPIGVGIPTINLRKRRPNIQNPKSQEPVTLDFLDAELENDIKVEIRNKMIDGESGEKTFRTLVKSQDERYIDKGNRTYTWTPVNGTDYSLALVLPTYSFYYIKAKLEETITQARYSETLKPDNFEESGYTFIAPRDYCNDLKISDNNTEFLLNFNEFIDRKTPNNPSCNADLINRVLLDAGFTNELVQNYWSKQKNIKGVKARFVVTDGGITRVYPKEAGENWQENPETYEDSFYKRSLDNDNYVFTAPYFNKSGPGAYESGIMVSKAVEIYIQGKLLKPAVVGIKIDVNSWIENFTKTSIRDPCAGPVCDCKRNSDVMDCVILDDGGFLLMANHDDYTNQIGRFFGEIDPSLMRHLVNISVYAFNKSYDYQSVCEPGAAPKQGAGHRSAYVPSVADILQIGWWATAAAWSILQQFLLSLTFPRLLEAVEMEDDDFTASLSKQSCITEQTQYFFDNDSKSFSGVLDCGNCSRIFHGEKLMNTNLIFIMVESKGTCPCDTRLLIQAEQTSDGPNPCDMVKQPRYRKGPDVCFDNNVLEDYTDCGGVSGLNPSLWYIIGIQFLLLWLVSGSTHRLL

CCC[C@H](c1nc2c(F)cc(Br)cc2c(=O)n1CC)N1CCNCC1 [Example 96, (R)-6-bromo-3-ethyl-8-fluoro-2-(1-(piperazin-1-yl)butyl)quinazolin-4(3H)-one]
Ki [1]: < 500 nM | Ki (Human μ-opioid receptor): 100 to 500 nM

CCCC(c1nc2ccc(CCN(C)Cc3ccccc3)cc2c(=O)n1CC)N1C[C@@H](C)N[C@@H](C)C1 (stereo partly drawn) [Example 174, 6-(2-(Benzyl(methyl)amino)ethyl)-2-(1-((3S,5R)-3,5-dimethylpiperazin-1-yl)butyl)-3-ethylquinazolin-4(3H)-one]
Ki [1]: < 500 nM | Ki (Human μ-opioid receptor): > 500 nM

CCC[C@@H](c1nc2cc(F)c(Br)cc2c(=O)n1C)N1CCN[C@@H](C)C1 [Example 63, 6-bromo-7-fluoro-3-methyl-2-((S)-1-((S)-3-methylpiperazin-1-yl)butyl)quinazolin-4(3H)-one]
Ki [1]: > 5000 nM | Ki (Human μ-opioid receptor): > 500 nM

CCC[C@H](c1nc2ccc(O)cc2c(=O)n1CC)N1C[C@@H](C)N[C@@H](C)C1 [Example 35, 2-((R)-1-((3S,5R)-3,5-Dimethylpiperazin-1-yl)butyl)-3-ethyl-6-hydroxyquinazolin-4(3H)-one]
Ki [1]: < 500 nM | Ki (Human μ-opioid receptor): > 500 nM

CCC[C@@H](c1nc2ccc(Br)cc2c(=O)n1CC)N1C[C@H](C)N[C@@H](C)C1 [Example 227, 6-Bromo-2-((S)-1-((3S,5S)-3,5-dimethylpiperazin-1-yl)butyl)-3-ethylquinazolin-4(3H)-one]
Ki [1]: > 5000 nM | Ki (Human μ-opioid receptor): > 500 nM

CCC[C@H](c1nc2c(F)cc(Cl)cc2c(=O)n1C)N1CCN[C@@H](C)C1 [Example 223, 6-chloro-8-fluoro-3-methyl-2-((R)-1-((S)-3-methylpiperazin-1-yl)butyl)quinazolin-4(3H)-one]
Ki [1]: > 5000 nM | Ki (Human μ-opioid receptor): < 100 nM

CCCC(c1nc2c(Br)c(OC)ccc2c(=O)n1CC)N1C[C@@H](C)N[C@@H](C)C1 (stereo partly drawn) [Example 5, 8-bromo-2-(1-((3S,5R)-3,5-dimethylpiperazin-1-yl)butyl)-3-ethyl-7-methoxyquinazolin-4(3H)-one]
Ki ([1]; read-out: α2δ-1 binding): 500 to 5000 nM | Ki (Human μ-opioid receptor; read-out: μ-binding): > 500 nM

CCC[C@H](c1nc2ncc(Br)cc2c(=O)n1CC)N1CCN[C@@H](C)C1 [Example 68, 6-Bromo-3-ethyl-2-((R)-1-((S)-3-methylpiperazin-1-yl)butyl)pyrido[2,3-d]pyrimidin-4(3H)-one]
Ki [1]: < 500 nM | Ki (Human μ-opioid receptor): > 500 nM

CCCC(c1nc2cc(C(=O)O)ccc2c(=O)n1CC)N1C[C@@H](C)N[C@@H](C)C1 (stereo partly drawn) [Example 179, 2-(1-((3S,5R)-3,5-dimethylpiperazin-1-yl)butyl)-3-ethyl-4-oxo-3,4-dihydroquinazoline-7-carboxylic acid]
Ki ([1]; read-out: α2δ-1 binding): 500 to 5000 nM | Ki (Human μ-opioid receptor; read-out: μ-binding): > 500 nM

CCC[C@H](c1nc2ccc(N3C[C@H](C)OC4(CCN(CCc5ccccc5)CC4)C3)cc2c(=O)n1CC)N1C[C@@H](C)N[C@@H](C)C1 [Example 156, 2-((R)-1-((3S,5R)-3,5-dimethylpiperazin-1-yl)butyl)-3-ethyl-6-((S)-2-methyl-9-phenethyl-1-oxa-4,9-diazaspiro[5.5]undecan-4-yl)quinazolin-4(3H)-one]
Ki ([1]; binding to α2δ-1 subunit of voltage-gated calcium channels expressed as Ki, + also Ki>5000 nM or inhibition between 1% and 50%, read-out: α2δ-1 binding): 500 to 5000 nM | Ki (Human μ-opioid receptor): > 500 nM

CCC[C@@H](c1nc2cc(F)c(Br)cc2c(=O)n1CC)N1CCN[C@H](C)C1 [Example 209, 6-bromo-3-ethyl-7-fluoro-2-((S)-1-((R)-3-methylpiperazin-1-yl)butyl)quinazolin-4(3H)-one]
Ki [1]: < 500 nM | Ki (Human μ-opioid receptor): 100 to 500 nM

CCCC(c1nc2ccc(N3CCC(N(C)C)CC3)cc2c(=O)n1CC)N1C[C@@H](C)N[C@@H](C)C1 (stereo partly drawn) [Example 139, 6-(4-(dimethylamino)piperidin-1-yl)-2-(1-((3S,5R)-3,5-dimethylpiperazin-1-yl)butyl)-3-ethylquinazolin-4(3H)-one]
Ki [1]: < 500 nM | Ki (Human μ-opioid receptor): > 500 nM

CCCC(c1nc2ccc(Br)c(F)c2c(=O)n1CC)N1CCNCC1 (centres unmarked) [Example 88, 6-bromo-3-ethyl-5-fluoro-2-(1-(piperazin-1-yl)butyl)quinazolin-4(3H)-one]
Ki [1]: < 500 nM | Ki (Human μ-opioid receptor): > 500 nM

CCCC(c1nc2cc(CN3CCN(C)CC3)ccc2c(=O)n1C)N1C[C@@H](C)N[C@@H](C)C1 (stereo partly drawn) [Example 186, 2-(1-((3S,5R)-3,5-dimethylpiperazin-1-yl)butyl)-3-methyl-7-((4-methylpiperazin-1-yl)methyl)quinazolin-4(3H)-one]
Ki [1]: < 500 nM | Ki (Human μ-opioid receptor): > 500 nM

CCC[C@H](c1nc2cc(F)c(Br)cc2c(=O)n1CC)N1CCN[C@@H](C)C1 [Example 106, 6-bromo-3-ethyl-7-fluoro-2-((R)-1-((S)-3-methylpiperazin-1-yl)butyl)quinazolin-4(3H)-one]
Ki [1]: < 500 nM | Ki (Human μ-opioid receptor): < 100 nM

CCC[C@@H](c1nc2ccc(Br)cc2c(=O)n1CC)[C@H]1CCNCC1(F)F [Example 195, 6-bromo-2-((R)-1-((R)-3,3-difluoropiperidin-4-yl)butyl)-3-ethylquinazolin-4(3H)-one]
Ki [1]: < 500 nM | Ki (Human μ-opioid receptor): > 500 nM

CCCC(c1nc2cc(NCC)ccc2c(=O)n1CC)N1C[C@@H](C)N[C@@H](C)C1 (stereo partly drawn) [Example 25, 2-(1-((3S,5R)-3,5-dimethylpiperazin-1-yl)butyl)-3-ethyl-7-(ethylamino)quinazolin-4(3H)-one]
Ki [1]: < 500 nM | Ki (Human μ-opioid receptor): > 500 nM

CCCC(c1nc2ccccc2c(=O)n1CCNC)N1C[C@@H](C)N[C@@H](C)C1 (stereo partly drawn) [Example 127, 2-(1-((3S,5R)-3,5-Dimethylpiperazin-1-yl)butyl)-3-(2-(methylamino)ethyl)quinazolin-4(3H)-one]
Ki [1]: 500 to 5000 nM | Ki (Human μ-opioid receptor; read-out: μ-binding): > 500 nM

CCC[C@H](c1nc2ncc(Br)cc2c(=O)n1CC1CC1)N1CCN[C@@H](C)C1 [Example 75, 6-bromo-3-(cyclopropylmethyl)-2-((R)-1-((S)-3-methylpiperazin-1-yl)butyl)pyrido[2,3-d]pyrimidin-4(3H)-one]
Ki [1]: < 500 nM | Ki (Human μ-opioid receptor): > 500 nM

CCCC(c1nc2cc(N3CCCC3)ccc2c(=O)n1CC)N1C[C@@H](C)N[C@@H](C)C1 (stereo partly drawn) [Example 137, 2-(1-((3S,5R)-3,5-Dimethylpiperazin-1-yl)butyl)-3-ethyl-7-(pyrrolidin-1-yl)quinazolin-4(3H)-one]
Ki [1]: < 500 nM | Ki (Human μ-opioid receptor): > 500 nM

CCC[C@@H](c1nc2ccc(Br)cc2c(=O)n1CC)N1CCN[C@@H](C)C1 [Example 99, 6-bromo-3-ethyl-2-((S)-1-((S)-3-methylpiperazin-1-yl)butyl)quinazolin-4(3H)-one]
Ki [1]: < 500 nM | Ki (Human μ-opioid receptor): > 500 nM

CCCC(c1nc2cc(F)ccc2c(=O)n1CC)N1C[C@@H](C)N[C@@H](C)C1 (stereo partly drawn) [Example 11, 2-(1-((3S,5R)-3,5-dimethylpiperazin-1-yl)butyl)-3-ethyl-7-fluoroquinazolin-4(3H)-one]
Ki [1]: < 500 nM | Ki (Human μ-opioid receptor): > 500 nM

CCC[C@H](c1nc2ccc(Cl)cc2c(=O)n1CC)N1CCN[C@H](C)C1 [Example 101, 6-Chloro-3-ethyl-2-((R)-1-((R)-3-methylpiperazin-1-yl)butyl)quinazolin-4(3H)-one]
Ki [1]: < 500 nM | Ki (Human μ-opioid receptor): > 500 nM

CCC[C@H](c1nc2ccc(Br)cc2c(=O)n1CC)N1CCN[C@H](C)C1 [Example 98, 6-bromo-3-ethyl-2-((R)-1-((R)-3-methylpiperazin-1-yl)butyl)quinazolin-4(3H)-one]
Ki [1]: < 500 nM | Ki (Human μ-opioid receptor): > 500 nM

CCC[C@@H](c1nc2ccc(Br)cc2c(=O)n1CC)N1C[C@@H](C)N[C@@H](C)C1 [Example 30, 6-bromo-2-((S)-1-((3S,5R)-3,5-dimethylpiperazin-1-yl)butyl)-3-ethylquinazolin-4(3H)-one]
Ki [1]: 500 to 5000 nM | Ki (Human μ-opioid receptor): > 500 nM

CCCC(c1nc2ccc(N(C)Cc3ccccc3)cc2c(=O)n1CC)N1C[C@@H](C)N[C@@H](C)C1 (stereo partly drawn) [Example 144, 6-(benzyl(methyl)amino)-2-(1-((3S,5R)-3,5-dimethylpiperazin-1-yl)butyl)-3-ethylquinazolin-4(3H)-one]
Ki [1]: < 500 nM | Ki (Human μ-opioid receptor): > 500 nM

CCC[C@H](c1nc2ccc(Br)cc2c(=O)n1CC)[C@H]1CCNCC1(F)F [Example 196, 6-bromo-2-((S)-1-((R)-3,3-difluoropiperidin-4-yl)butyl)-3-ethylquinazolin-4(3H)-one]
Ki [1]: > 5000 nM | Ki (Human μ-opioid receptor): > 500 nM

CCC[C@@H](c1nc2c(F)cc(OC)c(Br)c2c(=O)n1CC)N1CCNCC1 [Example 39, (S)-5-Bromo-3-ethyl-8-fluoro-6-methoxy-2-(1-(piperazin-1-yl)butyl)quinazolin-4(3H)-one]
Ki ([1]; read-out: α2δ-1 binding): > 5000 nM | Ki (Human μ-opioid receptor; read-out: μ-binding): > 500 nM

CCC[C@@H](c1nc2ccc(Br)cc2c(=O)n1C)N1CCN[C@@H](C)C1 [Example 42, 6-bromo-3-methyl-2-((S)-1-((S)-3-methylpiperazin-1-yl)butyl)quinazolin-4(3H)-one]
Ki [1]: > 5000 nM | Ki (Human μ-opioid receptor): > 500 nM

CCC[C@@H](c1nc2ccncc2c(=O)n1CC)N1CCN[C@H](C)C1 [Example 65, 3-ethyl-2-((S)-1-((R)-3-methylpiperazin-1-yl)butyl)pyrido[4,3-d]pyrimidin-4(3H)-one]
Ki [1]: > 5000 nM | Ki (Human μ-opioid receptor): > 500 nM

CCCC(c1nc2ccc(N3CCC(N(C)Cc4ccccc4)CC3)cc2c(=O)n1CC)N1C[C@@H](C)N[C@@H](C)C1 (stereo partly drawn) [Example 151, 6-(4-(benzyl(methyl)amino)piperidin-1-yl)-2-(1-((3S,5R)-3,5-dimethylpiperazin-1-yl)butyl)-3-ethylquinazolin-4(3H)-one]
Ki [1]: < 500 nM | Ki (Human μ-opioid receptor): > 500 nM

CCCC(c1nc2ccccc2c(=O)n1C)N1CCNCC1 (centres unmarked) [Example 80, 3-methyl-2-(1-(piperazin-1-yl)butyl)quinazolin-4(3H)-one]
Ki ([1]; read-out: α2δ-1 binding): 500 to 5000 nM | Ki (Human μ-opioid receptor; read-out: μ-binding): > 500 nM

CCC[C@H](c1nc2ccc(Br)cc2c(=O)n1CC)[C@H]1CCNCC1(F)F (single isomer, unassigned) [Example 189]
Ki [1]: < 500 nM | Ki (Human μ-opioid receptor): > 500 nM

CCC[C@H](c1nc2ccc(Cl)cc2c(=O)n1CC)N1CCN[C@@H](CF)C1 [Example 230, 6-chloro-3-ethyl-2-((R)-1-((R)-3-(fluoromethyl)piperazin-1-yl)butyl)quinazolin-4(3H)-one]
Ki [1]: 500 to 5000 nM | Ki (Human μ-opioid receptor): > 500 nM
